# According to patent publication US20220380476A1, “Use of an anti-CCR7 antibody in combination therapies with a BTK inhibitor and/or BCL2- inhibitor for treating hematological malignancies” (Catapult Therapeutics B.V., priority 2019, published 2022):
# Entries after “also recorded” stand apart in the source; their conditions may differ.
# T1: human CC motif receptor 7 (CCR7) (human, UniProt P32248 25-378)
# T1 sequence (looked up): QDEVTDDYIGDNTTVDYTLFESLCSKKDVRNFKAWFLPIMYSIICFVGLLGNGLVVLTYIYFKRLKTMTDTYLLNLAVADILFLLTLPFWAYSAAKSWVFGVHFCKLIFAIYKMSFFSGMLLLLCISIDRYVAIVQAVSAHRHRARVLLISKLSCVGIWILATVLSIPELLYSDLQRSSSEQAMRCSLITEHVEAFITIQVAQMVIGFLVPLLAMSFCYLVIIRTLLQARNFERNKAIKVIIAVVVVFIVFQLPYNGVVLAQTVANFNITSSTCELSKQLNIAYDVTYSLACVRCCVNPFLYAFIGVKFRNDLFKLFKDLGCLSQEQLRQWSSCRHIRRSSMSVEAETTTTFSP
# B1: CAP-100 (antibody, human IgG1, V domains shown)
# VH: EVQLLESGGGFVKPGGSLKLSCVVSGLTFRDFAMSWVRQTPEKRLVWVATISSGGFYTYYPDSVKGRFTISRDNVRNILYLQMSSLRSEDTAVYYCVRRAYRYDGTGDYSALDYWGTGTTVTVSS
# VL: DIQMTQSPSSLSASVGDRVTITCRASQDIGPSLNWYQQKPGKAPKRLIYATSNLDSGVPSRFSGSGSGTDFTLTISSLQPEDFATYYCLQFASSPLTFGQGTKVEIK
# Assays:
# Bcl-2 mRNA = conditions: cited from earlier work
# CD20 (human) = CD20 (human) (UniProt P11836)
# CCR7 = assay: Flow cytometry of surface CCR7 expression in CLL cells from treated patients; type: in vivo, human; conditions: for change in surface CCR7 expression compared with naïve patients: CLL patients on treatment
# Protocol: Systems). […] Data acquisition was performed on a BD FACSCanto™ 11 Flow Cytometer (BD Biosciences).
# MCL-1 = MCL-1 (Homo sapiens, UniProt Q07820); conditions: cited from earlier work
# Bcl-2 = Bcl-2 (Homo sapiens, UniProt P10415); conditions: cited from earlier work
# [1] = test system: primary cells from patients with B-cell malignancies; conditions: in vitro; cited from earlier work
# [2] = test system: lymphoma and other blood cancers; conditions: cited from earlier work
# BCL-XL and BCL-W = conditions: cited from earlier work
# [3] = test system: patients with chronic lymphocytic leukemia (CLL); conditions: cited from earlier work
# [4] = target: T1, human CC motif receptor 7 (CCR7); assay: cell-based or functional assay
# [5] = target: T1, human CC motif receptor 7 (CCR7); assay: cell-based or functional assay; remark: listed apart in the source
# [6] = target: T1, human CC motif receptor 7 (CCR7); assay: cell-based or functional assay; remark: listed apart in the source
# [7] = target: T1, human CC motif receptor 7 (CCR7); assay: cell-based or functional assay; remark: listed apart in the source
# [8] = target: T1, human CC motif receptor 7 (CCR7); assay: cell-based or functional assay; remark: listed apart in the source
# [9] = target: T1, human CC motif receptor 7 (CCR7); assay: cell-based or functional assay; remark: listed apart in the source
# MCL-1, sequence (Q07820 whole entry, species assumed): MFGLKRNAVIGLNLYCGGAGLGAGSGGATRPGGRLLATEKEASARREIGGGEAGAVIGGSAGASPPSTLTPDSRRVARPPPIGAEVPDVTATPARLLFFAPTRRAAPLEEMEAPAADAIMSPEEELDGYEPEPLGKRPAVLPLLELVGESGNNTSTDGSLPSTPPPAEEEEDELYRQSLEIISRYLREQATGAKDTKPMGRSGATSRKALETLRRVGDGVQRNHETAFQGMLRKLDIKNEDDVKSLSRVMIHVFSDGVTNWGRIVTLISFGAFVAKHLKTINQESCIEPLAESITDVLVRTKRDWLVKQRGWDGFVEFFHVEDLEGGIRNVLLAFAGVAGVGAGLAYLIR
# Bcl-2, sequence (P10415 whole entry): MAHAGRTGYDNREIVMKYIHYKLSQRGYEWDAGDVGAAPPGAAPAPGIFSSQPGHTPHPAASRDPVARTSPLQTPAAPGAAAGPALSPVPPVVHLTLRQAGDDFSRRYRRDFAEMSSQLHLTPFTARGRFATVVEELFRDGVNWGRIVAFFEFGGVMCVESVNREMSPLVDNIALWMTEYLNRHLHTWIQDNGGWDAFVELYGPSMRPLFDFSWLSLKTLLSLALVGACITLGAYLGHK
# CD20 (human), sequence (P11836 whole entry): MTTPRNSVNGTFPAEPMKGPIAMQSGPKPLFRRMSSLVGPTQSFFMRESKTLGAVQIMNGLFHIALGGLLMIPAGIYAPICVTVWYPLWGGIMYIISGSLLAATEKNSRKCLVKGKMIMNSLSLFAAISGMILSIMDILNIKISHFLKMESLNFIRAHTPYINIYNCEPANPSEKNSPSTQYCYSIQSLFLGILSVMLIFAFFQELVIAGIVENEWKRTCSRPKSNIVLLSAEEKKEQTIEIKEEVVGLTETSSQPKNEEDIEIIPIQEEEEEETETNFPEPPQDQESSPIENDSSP
molecule,measurement,setting,value
oblimersen,cell proliferation,Bcl-2 mRNA,inhibited
RTX (antibody),EC50 (read off the curve); ADCC on CLL cells of a patient receiving venetoclax,CD20 (human),2 µg/mL
C=CC(=O)N1CCC([C@@H]2CCNc3c(C(N)=O)c(-c4ccc(Oc5ccccc5)cc4)nn32)CC1 [zanabrutinib],change in surface CCR7 expression compared with naïve patients,CCR7,unchanged; also recorded: no changes
"CC1(C)CCC(c2ccc(Cl)cc2)=C(CN2CCN(c3ccc(C(=O)NS(=O)(=O)c4ccc(N[C@H](CCN5CCOCC5)CSc5ccccc5)c(S(=O)(=O)C(F)(F)F)c4)cc3)CC2)C1 [navitoclax, 4-(4-{[2-(4-Chlorophenyl)-5,5-dimethyl-1-cyclohexen-1-yl]methyl}-1-piperazinyl)-N-[(4-{[(2R)-4-(4-morpholinyl)-1-(phenylsulfanyl)-2-butanyl]amino}-3-[(trifluoromethyl)sulfonyl]phenyl)sulfonyl]-benzamide]",activity against MCL-1,MCL-1,not A1 or Mcl-1
same,"affinity for Bcl-2, Bcl-xL and Bcl-w compared with previous Bcl-2 inhibitors",Bcl-2,higher affinity
CC#CC(=O)N1CCC[C@H]1c1nc(-c2ccc(C(=O)Nc3ccccn3)cc2)c2c(N)nccn12 [acalabrutinib],change in surface CCR7 expression compared with naïve patients,CCR7,unchanged; also recorded: no changes
"CN(C)CC[C@H](CSc1ccccc1)Nc1ccc(S(=O)(=O)NC(=O)c2ccc(N3CCN(Cc4ccccc4-c4ccc(Cl)cc4)CC3)cc2)cc1[N+](=O)[O-] [ABT-737, 4-[4-[(4′-chloro[1,T-biphenyl]-2-yl)methyl]-1-piperazinyl]A/-[[4-[[(1R)-3-(dimethylamino)-1-[(phenylthio)methyl]propyl]amino]-3-nitrophenyl]sulfonyl]benzamide]",sensitivity of primary cells,[1],sensitive
same,activity against MCL-1,MCL-1,not A1 or Mcl-1
same,"affinity for Bcl-2, Bcl-xL and Bcl-w compared with previous Bcl-2 inhibitors",Bcl-2,higher affinity
same,survival,[2]; animal models,improves survival
same,tumor regression,[2]; animal models,causes tumor regression
same,efficacy in patient xenografts,[2]; preclinical studies utilizing patient xenografts,shows efficacy
CC1(C)CCC(CN2CCN(c3ccc(C(=O)NS(=O)(=O)c4ccc(NCC5CCOCC5)c([N+](=O)[O-])c4)c(Oc4cnc5[nH]ccc5c4)c3)CC2)=C(c2ccc(Cl)cc2)C1 [venetoclax],activity against MCL-1,MCL-1,no activity
same,binding affinity to BCL-XL and BCL-W,BCL-XL and BCL-W,significantly lower affinity
same,inhibition of Bcl-xL or Bcl-w,BCL-XL and BCL-W,not Bcl-xL or Bcl-w
same,percentage of CCR7-expressing CLL cells,CCR7; CLL cells from patients on treatment,approximately 100%
same,change in surface CCR7 expression compared with naïve patients,CCR7,maintained in essentially all CLL cells
same,clinical response,[3],Good responses
same,thrombocytopenia,[3],not observed
B1,EC50 (read off the curve); ADCC on CLL cells of a patient with disease relapsed/refractory to ibrutinib,[4],~1 µg/mL
same,EC50 (read off the curve); ADCC on CLL cells of a patient receiving zanabrutinib,[5],~0.8 µg/mL
same,EC50 (read off the curve); ADCC on CLL cells of a patient receiving ibrutinib,[6],~1 µg/mL
same,IC50 (read off the curve); CCL21-induced migration of CLL cells of a patient receiving venetoclax,[7],~0.1 µg/mL
same,IC50 (read off the curve); CCL19-induced migration of CLL cells of an ibrutinib patient,[8],~0.2 µg/mL
same,EC50 (read off the curve); ADCC on CLL cells of a patient receiving venetoclax,[9],~0.2 µg/mL
